We go through seven compounds from patent US4182877A, “Substituted anthranilates” (Commonwealth Scientific and Industrial Research Organization, priority 1976, dated 1980).

In brackets after ≈: the same amount, converted by molar mass.

In this experiment the test system is Tilletia foetida. Description: In vitro inhibition of germination of Tilletia foetida (wheat smut) spores on agar medium. The experiment is classed as cell-based. The settings on record: Tilletia laevis, 10° C. in the dark, 8-9 days, tested at 5, 10, 25, 50, 100 and 150 ppm, spores germinated as percentage of control, read-out: Minimum inhibitory concentration (ppm) which reduces germination to <20% control. The procedure:
In vitro assays using compounds of the formula I were carried out as follows. An agar medium prepared from Difco "Bacto-Agar" and distilled water was sterilised in an autoclave. Aliquots of the test compounds in acetone solution were added to two duplicate samples of the medium to give final concentrations of 5, 10, 25, 50, 100 and 150 ppm, and the resulting solutions poured into sterilised petri dishes and inoculated with Tilletia foetida (wheat smut) from the kernels of infected wheat. […] The inhibition of germination due to the test compounds was then determined by estimating (microscope) the spores germinated as a percentage of control.
`CCOC(=O)c1c(N(C)C)cc(C)c(SC#N)c1Cl` [Compound 4, Ethyl 6-chloro-4,N,N-trimethyl-5-thiocyanoanthranilate]: the MIC is < 5 µg/mL.
Then `CCOC(=O)c1c(Cl)cc(C)cc1N(CC)CC` [R^1 = R^2 = R^3 = Et], with 25 µg/mL (≈ 92.7 µM); and `CCOC(=O)c1c(N(CC)CC)cc(C)c([N+](=O)[O-])c1Cl` [Compound 7], with 25 µg/mL (≈ 79.4 µM).
Then `CCOC(=O)c1c(N(CC)CC)cc(C)c(SC#N)c1Cl` [Compound 5], with 10 µg/mL (≈ 30.6 µM); and `CCOC(=O)c1c(N(C)C)cc(C)c([N+](=O)[O-])c1Cl` [Compound 6, Ethyl-6-chloro-4,N,N-trimethyl-5-nitroanthranilate], with < 5 µg/mL; and `CCOC(=O)c1c(Cl)cc(C)cc1N(C)C` [Compound 1, Ethyl 6-chloro-4,N,N-trimethylanthranilate], with 25 µg/mL (≈ 103 µM).
`CCOC(=O)c1c(Cl)c(Cl)c(C)c(Cl)c1N(C)C` [Compound 3, Ethyl 3,5,6-trichloro-4,N,N-trimethylanthranilate]: the MIC came to 5 µg/mL (≈ 16.1 µM).
